Data from the supplement of paper PMC10307832.

Experiments:
Test in all cases: relative viability (nuclei count vs DMSO), 5 days (fraction); higher = more cells survive
Vemurafenib + Pictilisib = compound: CCCS(=O)(=O)Nc1ccc(F)c(C(=O)c2c[nH]c3ncc(-c4ccc(Cl)cc4)cc23)c1F [Vemurafenib] + CS(=O)(=O)N1CCN(Cc2cc3nc(-c4cccc5[nH]ncc45)nc(N4CCOCC4)c3s2)CC1 [Pictilisib] (partner 1 µM)
Summary of the method: (§1)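 For relative viability, nuclei counts in treated wells were divided by those in vehicle wells. Lung cancer cell lines had been pin-tool dosed in 1536-well plates the day after seeding and cultured for 5 days, then fixed and stained in one step (final 0.05% Triton X-100, 1% formaldehyde, 1 ug/ml Hoechst) and imaged at 4×. Doses were one drug alone or a fixed anchor-drug dose plus five library-drug doses (not always all listed) in √10 steps, and values are duplicate-plate medians.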

OSI-027 + Trametinib = compound: COc1cccc2cc(-c3nc([C@H]4CC[C@H](C(=O)O)CC4)n4ncnc(N)c34)[nH]c12 [OSI-027] + CC(=O)Nc1cccc(-n2c(=O)n(C3CC3)c(=O)c3c(Nc4ccc(I)cc4F)n(C)c(=O)c(C)c32)c1 [Trametinib] (partner 0.02 µM)
Summary of the method: as §1

OSI-027 + Crizotinib = compound: COc1cccc2cc(-c3nc([C@H]4CC[C@H](C(=O)O)CC4)n4ncnc(N)c34)[nH]c12 [OSI-027] + C[C@@H](Oc1cc(-c2cnn(C3CCNCC3)c2)cnc1N)c1c(Cl)ccc(F)c1Cl [Crizotinib] (partner 1 µM)
Summary of the method: as §1

Alpelisib + OSI-027 = compound: Cc1nc(NC(=O)N2CCC[C@H]2C(N)=O)sc1-c1ccnc(C(C)(C)C(F)(F)F)c1 [Alpelisib] + COc1cccc2cc(-c3nc([C@H]4CC[C@H](C(=O)O)CC4)n4ncnc(N)c34)[nH]c12 [OSI-027] (partner 0.5 µM)
Summary of the method: as §1

Cell Line	relative viability (Vemurafenib + Pictilisib; first compound 0.03162 µM)	relative viability (Vemurafenib + Pictilisib; first compound 0.1 µM)	relative viability (Vemurafenib + Pictilisib; first compound 0.3162 µM)	relative viability (Vemurafenib + Pictilisib; first compound 1 µM)	relative viability (OSI-027 + Trametinib; first compound 0.01 µM)	relative viability (OSI-027 + Trametinib; first compound 0.03162 µM)	relative viability (OSI-027 + Trametinib; first compound 0.1 µM)	relative viability (OSI-027 + Trametinib; first compound 0.3162 µM)	relative viability (OSI-027 + Trametinib; first compound 1 µM)	relative viability (OSI-027 + Crizotinib; first compound 0.01 µM)	relative viability (OSI-027 + Crizotinib; first compound 0.03162 µM)	relative viability (OSI-027 + Crizotinib; first compound 0.1 µM)	relative viability (OSI-027 + Crizotinib; first compound 0.3162 µM)	relative viability (OSI-027 + Crizotinib; first compound 1 µM)	relative viability (Alpelisib + OSI-027; first compound 0.04 µM)	relative viability (Alpelisib + OSI-027; first compound 0.1265 µM)	relative viability (Alpelisib + OSI-027; first compound 0.4 µM)	relative viability (Alpelisib + OSI-027; first compound 1.265 µM)	relative viability (Alpelisib + OSI-027; first compound 4 µM)
NCI-H1944	0.318	0.326	0.331	0.307	0.379	0.399	0.405	0.355	0.298	1.18	1.18	1.1	0.918	0.596	0.365	0.401	0.332	0.281	0.223
NCI-H1975	0.279	0.278	0.232	0.332	0.278	0.386	0.3	0.294	0.264	1.1	0.88	0.99	0.97	0.828	0.675	0.714	0.656	0.326	0.228
NCI-H1993	0.767	–	0.801	0.831	0.474	0.548	0.523	0.412	0.505	0.783	0.77	0.678	0.565	0.56	0.596	0.492	0.524	0.571	0.521
NCI-H2009	0.829	0.858	0.605	0.572	0.272	0.283	0.2	0.196	0.195	1.05	0.998	0.879	0.941	0.72	0.602	0.574	0.655	0.428	0.429
NCI-H2023	0.218	0.222	0.302	0.225	0.645	0.506	0.435	0.388	0.272	0.679	0.587	0.614	0.501	0.295	0.357	0.33	0.311	0.192	0.156
NCI-H2085	0.421	0.458	0.664	0.416	0.504	0.514	0.429	0.313	0.281	0.807	0.852	0.825	0.812	0.586	0.826	0.658	0.709	0.585	0.574
NCI-H2087	0.728	0.816	–	0.802	0.194	0.235	0.194	0.154	0.142	0.991	0.971	0.753	0.866	0.53	0.503	0.484	0.482	0.342	0.336
